# In ChEMBL document CHEMBL1147166, “Structure-activity relationships of methoctramine-related polyamines as muscarinic antagonist: effect of replacing the inner polymethylene chain with cyclic moieties” (Bioorg Med Chem, 2007):
# Assays:
# [1] = target: T1, Muscarinic acetylcholine receptor M2 (Homo sapiens) (UniProt P08172); test: Antagonist potency at muscarinic receptor M2 in guinea pig atrium; assay type: functional, tissue-based; settings: Cavia porcellus; Cardiac atrium; target entry is the homologue from another species
# T1 sequence (whole entry): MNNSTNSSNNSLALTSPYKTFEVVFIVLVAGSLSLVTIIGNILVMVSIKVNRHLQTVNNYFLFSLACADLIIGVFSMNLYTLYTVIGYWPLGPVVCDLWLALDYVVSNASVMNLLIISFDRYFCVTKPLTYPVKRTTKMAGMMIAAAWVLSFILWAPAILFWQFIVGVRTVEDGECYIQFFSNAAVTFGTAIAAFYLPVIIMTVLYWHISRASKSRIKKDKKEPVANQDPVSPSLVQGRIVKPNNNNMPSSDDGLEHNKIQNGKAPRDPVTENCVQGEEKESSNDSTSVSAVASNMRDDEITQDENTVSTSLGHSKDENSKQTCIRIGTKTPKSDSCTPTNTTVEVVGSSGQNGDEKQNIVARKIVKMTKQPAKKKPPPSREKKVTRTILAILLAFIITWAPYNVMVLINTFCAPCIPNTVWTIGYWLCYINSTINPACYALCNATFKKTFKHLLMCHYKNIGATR
# [2] = target: T2, Muscarinic acetylcholine receptor M4 (Homo sapiens) (UniProt P08173); test: Antagonist potency at muscarinic receptor M4 in rabbit vas deferens; assay type: functional, tissue-based; settings: Oryctolagus cuniculus, target entry is the homologue from another species
# T2 sequence (whole entry): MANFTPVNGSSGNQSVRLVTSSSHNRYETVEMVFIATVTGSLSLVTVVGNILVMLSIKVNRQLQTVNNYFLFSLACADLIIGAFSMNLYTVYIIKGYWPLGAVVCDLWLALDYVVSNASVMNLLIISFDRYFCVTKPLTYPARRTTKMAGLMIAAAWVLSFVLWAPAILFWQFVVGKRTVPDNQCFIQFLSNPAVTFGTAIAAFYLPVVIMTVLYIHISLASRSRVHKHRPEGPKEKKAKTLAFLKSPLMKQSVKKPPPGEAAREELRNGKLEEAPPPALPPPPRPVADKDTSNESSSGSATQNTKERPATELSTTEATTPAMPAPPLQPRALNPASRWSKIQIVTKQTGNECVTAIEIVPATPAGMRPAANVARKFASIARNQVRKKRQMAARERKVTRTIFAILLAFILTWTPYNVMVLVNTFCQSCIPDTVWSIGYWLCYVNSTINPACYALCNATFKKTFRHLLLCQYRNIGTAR
# [3] = target: Muscarinic acetylcholine receptor M3 (Cavia porcellus) (UniProt Q8VH26); test: Antagonist potency at muscarinic receptor M3 in guinea pig ileum; assay type: functional, tissue-based
# Muscarinic acetylcholine receptor M3 (Cavia porcellus), sequence (Q8VH26 1-587): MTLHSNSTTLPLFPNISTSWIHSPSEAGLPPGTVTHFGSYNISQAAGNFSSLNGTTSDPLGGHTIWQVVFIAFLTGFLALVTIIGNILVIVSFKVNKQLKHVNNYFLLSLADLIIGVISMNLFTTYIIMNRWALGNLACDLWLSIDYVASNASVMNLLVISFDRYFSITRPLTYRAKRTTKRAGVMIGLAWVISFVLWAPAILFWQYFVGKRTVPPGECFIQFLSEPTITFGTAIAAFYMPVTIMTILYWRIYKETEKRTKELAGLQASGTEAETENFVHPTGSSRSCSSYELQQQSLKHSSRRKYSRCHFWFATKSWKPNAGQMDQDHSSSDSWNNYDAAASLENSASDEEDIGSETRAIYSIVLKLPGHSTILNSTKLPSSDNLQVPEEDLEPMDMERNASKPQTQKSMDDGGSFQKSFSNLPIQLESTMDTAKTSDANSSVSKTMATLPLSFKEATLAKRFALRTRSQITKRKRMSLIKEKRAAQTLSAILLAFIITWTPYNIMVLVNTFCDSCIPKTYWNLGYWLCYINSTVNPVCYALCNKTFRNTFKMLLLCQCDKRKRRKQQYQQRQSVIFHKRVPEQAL
# [4] = tested on: Mus musculus; test: Antinociceptive activity in mouse assessed as licking latency at 5 mg/kg, ip by hot plate method; assay type: functional; settings: route intraperitoneal
# [5] = target: Cholinesterase (Homo sapiens, UniProt P06276); test: Inhibition of human serum recombinant BChE after 20 mins
# Cholinesterase, sequence (P06276 whole entry): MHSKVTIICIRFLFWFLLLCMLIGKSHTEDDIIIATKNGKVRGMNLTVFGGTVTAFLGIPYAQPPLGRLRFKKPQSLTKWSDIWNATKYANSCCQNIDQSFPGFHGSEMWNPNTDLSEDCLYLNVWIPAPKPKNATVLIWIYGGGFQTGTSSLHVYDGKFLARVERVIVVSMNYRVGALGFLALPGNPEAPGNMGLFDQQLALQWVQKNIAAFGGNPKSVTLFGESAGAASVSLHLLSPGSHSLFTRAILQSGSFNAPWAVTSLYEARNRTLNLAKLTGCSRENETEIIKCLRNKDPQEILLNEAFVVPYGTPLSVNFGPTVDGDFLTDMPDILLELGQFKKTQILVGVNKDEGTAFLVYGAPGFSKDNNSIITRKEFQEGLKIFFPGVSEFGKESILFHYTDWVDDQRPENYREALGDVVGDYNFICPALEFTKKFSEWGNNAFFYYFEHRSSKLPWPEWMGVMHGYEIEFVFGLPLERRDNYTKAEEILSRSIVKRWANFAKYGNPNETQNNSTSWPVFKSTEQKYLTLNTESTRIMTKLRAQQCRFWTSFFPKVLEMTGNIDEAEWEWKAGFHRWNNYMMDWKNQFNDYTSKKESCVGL
# [6] = target: Acetylcholinesterase (Homo sapiens, UniProt P22303); test: Inhibition of human erythrocyte recombinant AchE after 20 mins
# Acetylcholinesterase, sequence (P22303 whole entry): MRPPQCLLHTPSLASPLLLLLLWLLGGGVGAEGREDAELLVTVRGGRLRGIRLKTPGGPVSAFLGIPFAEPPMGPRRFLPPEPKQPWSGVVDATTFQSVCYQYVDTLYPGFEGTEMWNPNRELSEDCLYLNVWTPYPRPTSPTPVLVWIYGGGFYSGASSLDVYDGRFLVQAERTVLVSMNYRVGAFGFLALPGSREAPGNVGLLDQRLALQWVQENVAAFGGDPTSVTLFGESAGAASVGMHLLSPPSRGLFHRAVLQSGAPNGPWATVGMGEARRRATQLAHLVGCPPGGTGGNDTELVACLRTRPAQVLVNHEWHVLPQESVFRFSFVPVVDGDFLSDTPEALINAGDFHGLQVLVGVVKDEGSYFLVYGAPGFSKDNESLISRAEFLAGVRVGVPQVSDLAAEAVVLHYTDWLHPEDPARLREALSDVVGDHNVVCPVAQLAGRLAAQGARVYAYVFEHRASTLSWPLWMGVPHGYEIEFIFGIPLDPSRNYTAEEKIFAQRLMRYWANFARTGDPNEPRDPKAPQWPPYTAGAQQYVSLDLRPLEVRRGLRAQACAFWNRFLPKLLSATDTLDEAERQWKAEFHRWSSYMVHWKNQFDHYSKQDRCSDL
# [7] = tested on: Mus musculus; test: Antinociceptive activity in mouse assessed as licking latency at 1 mg/kg, ip by hot plate method; assay type: functional; settings: route intraperitoneal
# [8] = tested on: Mus musculus; test: Antinociceptive activity in mouse assessed as licking latency at 0.01 ug, icv after 60 mins by hot plate method; assay type: functional
# [9] = target: T3, Muscarinic acetylcholine receptor M5 (Homo sapiens, UniProt P08912); test: Displacement of [3H] N-methyl-scopolamine chloride from human muscarinic receptor M5 expressed in CHO cells; assay type: cell-based
# T3 sequence (P08912 whole entry): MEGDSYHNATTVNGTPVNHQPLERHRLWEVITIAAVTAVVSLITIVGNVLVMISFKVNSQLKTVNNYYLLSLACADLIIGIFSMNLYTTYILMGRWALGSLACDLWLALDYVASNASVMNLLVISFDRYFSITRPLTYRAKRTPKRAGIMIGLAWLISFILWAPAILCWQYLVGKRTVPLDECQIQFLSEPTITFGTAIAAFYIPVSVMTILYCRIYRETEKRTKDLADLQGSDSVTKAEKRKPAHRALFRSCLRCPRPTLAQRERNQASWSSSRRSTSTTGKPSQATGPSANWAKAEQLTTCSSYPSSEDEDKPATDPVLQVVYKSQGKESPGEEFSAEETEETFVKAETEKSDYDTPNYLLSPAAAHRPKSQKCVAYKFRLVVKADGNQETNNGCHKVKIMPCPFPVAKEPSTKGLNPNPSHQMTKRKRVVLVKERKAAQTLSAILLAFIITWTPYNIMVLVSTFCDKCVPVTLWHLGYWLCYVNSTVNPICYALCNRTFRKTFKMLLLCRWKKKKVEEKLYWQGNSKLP
# [10] = target: T4, Muscarinic acetylcholine receptor M1 (Homo sapiens, UniProt P11229); test: Displacement of [3H] N-methyl-scopolamine chloride from human muscarinic receptor M1 expressed in CHO cells; assay type: cell-based
# T4 sequence (P11229 whole entry): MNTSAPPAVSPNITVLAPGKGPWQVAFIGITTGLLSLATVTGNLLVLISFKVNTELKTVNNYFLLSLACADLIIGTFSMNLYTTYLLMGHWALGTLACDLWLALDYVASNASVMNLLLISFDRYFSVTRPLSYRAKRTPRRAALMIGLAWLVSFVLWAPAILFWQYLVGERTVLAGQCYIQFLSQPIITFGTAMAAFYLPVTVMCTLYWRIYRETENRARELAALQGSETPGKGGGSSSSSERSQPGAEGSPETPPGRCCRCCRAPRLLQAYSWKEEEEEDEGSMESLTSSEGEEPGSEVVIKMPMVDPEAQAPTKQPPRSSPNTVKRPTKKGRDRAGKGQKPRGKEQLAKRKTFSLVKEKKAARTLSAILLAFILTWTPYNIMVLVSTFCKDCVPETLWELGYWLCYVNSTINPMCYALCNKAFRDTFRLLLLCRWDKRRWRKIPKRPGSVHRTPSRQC
# [11] = tested on: Mus musculus; test: Antinociceptive activity in mouse assessed as licking latency at 0.005 ug, icv after 30 mins by hot plate method; assay type: functional
# [12] = target: Muscarinic acetylcholine receptor M3 (Homo sapiens, UniProt P20309); test: Displacement of [3H] N-methyl-scopolamine chloride from human muscarinic receptor M3 expressed in CHO cells; assay type: cell-based
# Muscarinic acetylcholine receptor M3, sequence (P20309 whole entry): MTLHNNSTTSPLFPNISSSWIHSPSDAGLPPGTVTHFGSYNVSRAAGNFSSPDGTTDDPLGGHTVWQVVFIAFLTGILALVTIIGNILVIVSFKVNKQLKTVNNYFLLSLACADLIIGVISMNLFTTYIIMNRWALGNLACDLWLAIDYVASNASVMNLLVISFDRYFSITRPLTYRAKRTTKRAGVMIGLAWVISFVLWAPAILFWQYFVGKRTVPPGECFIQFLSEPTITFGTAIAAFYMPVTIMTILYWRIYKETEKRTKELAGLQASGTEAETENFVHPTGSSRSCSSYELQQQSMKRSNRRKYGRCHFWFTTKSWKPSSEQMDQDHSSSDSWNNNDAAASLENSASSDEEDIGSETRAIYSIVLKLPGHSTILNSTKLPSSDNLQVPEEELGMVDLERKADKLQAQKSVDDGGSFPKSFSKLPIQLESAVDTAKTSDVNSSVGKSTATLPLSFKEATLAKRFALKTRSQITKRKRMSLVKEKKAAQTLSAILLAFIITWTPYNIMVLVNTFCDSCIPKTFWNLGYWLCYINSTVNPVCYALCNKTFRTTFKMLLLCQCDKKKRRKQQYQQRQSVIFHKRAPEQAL
# [13] = tested on: Mus musculus; test: Antinociceptive activity in mouse assessed as licking latency at 1.0 ug, icv after 15 mins by hot plate method; assay type: functional
# [14] = tested on: Mus musculus; test: Antinociceptive activity in mouse assessed as licking latency at 0.05 ug, icv after 30 mins by hot plate method; assay type: functional
# [15] = tested on: Mus musculus; test: Antinociceptive activity in mouse assessed as licking latency at 1.0 ug, icv after 30 mins by hot plate method; assay type: functional
# [16] = tested on: Mus musculus; test: Antinociceptive activity in mouse assessed as licking latency at 1.0 ug, icv after 60 mins by hot plate method; assay type: functional
# [17] = tested on: Mus musculus; test: Antinociceptive activity in mouse assessed as licking latency at 0.005 ug, icv after 15 mins by hot plate method; assay type: functional
# [18] = tested on: Mus musculus; test: Antinociceptive activity in mouse assessed as licking latency at 0.05 ug, icv after 60 mins by hot plate method; assay type: functional
# [19] = tested on: Mus musculus; test: Antinociceptive activity in mouse assessed as licking latency at 0.05 ug, icv after 45 mins by hot plate method; assay type: functional
# [20] = tested on: Mus musculus; test: Antinociceptive activity in mouse assessed as licking latency at 0.05 ug, icv after 15 mins by hot plate method; assay type: functional
# [21] = tested on: Mus musculus; test: Antinociceptive activity in mouse assessed as licking latency at 0.01 ug, icv after 45 mins by hot plate method; assay type: functional
# [22] = tested on: Mus musculus; test: Antinociceptive activity in mouse assessed as licking latency at 0.005 ug, icv after 45 mins by hot plate method; assay type: functional
# [23] = tested on: Mus musculus; test: Antinociceptive activity in mouse assessed as licking latency at 0.01 ug, icv after 15 mins by hot plate method; assay type: functional
# [24] = tested on: Mus musculus; test: Antinociceptive activity in mouse assessed as licking latency at 0.005 ug, icv after 60 mins by hot plate method; assay type: functional
# [25] = tested on: Mus musculus; test: Antinociceptive activity in mouse assessed as licking latency at 0.01 ug, icv after 30 mins by hot plate method; assay type: functional
# [26] = tested on: Mus musculus; test: Antinociceptive activity in mouse assessed as licking latency at 1.0 ug, icv after 45 mins by hot plate method; assay type: functional
# [27] = target: T5, Muscarinic acetylcholine receptor M4 (Homo sapiens, UniProt P08173); test: Displacement of [3H] N-methyl-scopolamine chloride from human muscarinic receptor M4 expressed in CHO cells; assay type: cell-based
# T5 sequence (P08173 whole entry): T2 sequence (whole entry)
SMILES,pKb [1],pKb [2],pKb [3],further results
COc1ccccc1CNCCCCCCN1CCC(CC2CCN(CCCCCCNCc3ccccc3OC)CC2)CC1,7.16,5.39,5.82,–
CN1[C@@H]2CC[C@H]1C[C@@H](OC(=O)C(CO)c1ccccc1)C2 (some centres not stated) [ATROPINE],–,–,–,Activity [4]: 14.9 s
COc1ccccc1CNCCCCCC(=O)N1CCC(CCCC2CCN(C(=O)CCCCCNCc3ccccc3OC)CC2)CC1,5.11,< 5,5.09,–
COc1ccccc1CNCCCCCC(=O)N1CCC(CC2CCN(C(=O)CCCCCNCc3ccccc3OC)CC2)CC1,6.29,5.37,5.48,–
COc1ccccc1CNCCCCCC(=O)N1CCC(CCC2CCN(C(=O)CCCCCNCc3ccccc3OC)CC2)CC1,5.91,6.09,5.14,IC50 [5]: 18600 nM; IC50 [6]: 135 nM
COc1ccccc1CNCCCCCCNc1ccc(Cc2ccc(NCCCCCCNCc3ccccc3OC)cc2)cc1,< 5,< 5,5.35,–
C=CCN1CC[C@]23c4c5ccc(O)c4O[C@H]2C(=O)CC[C@@]3(O)[C@H]1C5 [NALOXONE],–,–,–,Activity [7]: 15.1 s
COc1ccccc1CNCCCCCC(=O)N1CCC(C2CCN(C(=O)CCCCCNCc3ccccc3OC)CC2)CC1,6.5,6,5.62,–
COc1ccccc1CNCCCCCCN1CCC(CCCC2CCN(CCCCCCNCc3ccccc3OC)CC2)CC1,7.52,5.64,6.37,–
COc1ccccc1CNCCCCCC(=O)Nc1ccc(Cc2ccc(NC(=O)CCCCCNCc3ccccc3OC)cc2)cc1,5.47,< 5,5.32,–
COc1ccccc1CNCCCCCCN1CCC(C2CCN(CCCCCCNCc3ccccc3OC)CC2)CC1,7.12,6.13,6.08,–
COc1ccccc1CNCCCCCCNc1ccc(-c2ccc(NCCCCCCNCc3ccccc3OC)cc2)cc1,< 5,< 5,–,–
COc1ccccc1CNCCCCCCNc1ccc(CCc2ccc(NCCCCCCNCc3ccccc3OC)cc2)cc1,< 5,< 5.52,–,–
COc1ccccc1CNCCCCCC(=O)Nc1ccc(-c2ccc(NC(=O)CCCCCNCc3ccccc3OC)cc2)cc1,5.31,5.21,–,–
COc1ccccc1CNCCCCCCNCCCCCCCCNCCCCCCNCc1ccccc1OC [METHOCTRAMINE],–,6.45,6.32,Time [8]: 17.2 s; Ki [9]: 550 nM; Ki [10]: 83.2 nM; Time [11]: 18.4 s; Ki [12]: 525 nM; Time [13]: 20.6 s; Time [14]: 23.9 s; Time [15]: 21.3 s; Time [16]: 15.5 s; Time [17]: 20.2 s; Time [18]: 14.4 s; Time [19]: 18.7 s; Time [20]: 24.1 s; Time [21]: 19.3 s; Time [22]: 18.3 s; Time [23]: 23.4 s; Time [24]: 16.6 s; Time [25]: 22.5 s; Time [26]: 17.5 s; Ki [27]: 107 nM
COc1ccccc1CNCCCCCC(=O)Nc1ccc(CCc2ccc(NC(=O)CCCCCNCc3ccccc3OC)cc2)cc1,< 5,< 5,< 5,–
